Each structure is given as a SMILES string.

Series [1] relates to primary cultures of differentiated CF airway epithelia. Kind of series: pHASL measurement (SNARF-1-dextran) in primary CF airway epithelia. The series is classed as cell-based, human. An excerpt: (§1) Cell culture. Primary cultures of differentiated airway epithelia were obtained without passage from multiple human donors as previously reported (37). Briefly, proximal bronchi were dissected, cut into small pieces, and enzymatically digested. Epithelial cells were isolated and seeded onto collagen-coated inserts (Costar, 3470; Falcon, 353180). Epithelia were differentiated at the air liquid interface for 3 weeks or more prior to assay. During the course of this study, new CF lung donors became scarce, partly due to more individuals taking highly-active CFTR modulators. To manage this situation, epithelial cells from previous CF donors cryopreserved at PO were thawed and differentiated. Whenever feasible, studies followed a paired design so that epithelia from the same donor were assayed under control and treatment conditions.
(§2) pHASL measurement. pHASL was measured using a fluorescent ratiometric pH indicator, SNARF-1, conjugated to 70 kD dextran (Thermo Fisher Scientific). SNARF-1-dextran was delivered as a powder to the apical side and allowed to distribute into ASL for 1 hour. Imaging was performed on a laser-scanning confocal microscope (Zeiss LSM 880). SNARF-1 was excited at 514 nm, and emissions at 580 nm and 640 nm were recorded. The ratio of fluorescence intensities (580/640) was obtained to calculate pH values using calibration curves constructed from colorless standard pH solutions. The microscope chamber housing epithelia maintained a humidified environment at 37° C. 5% CO2 was added to the chamber environment whenever the basolateral side was immersed in a HCO3^− containing buffer solution, but removed when a HCO3^−-free (HEPES) buffer solution was used.

In series [2] the test system is primary cultures of non-CF epithelia. In words: pHASL measurement (SNARF-1-dextran) in primary non-CF airway epithelia. The format is cell-based, human. To be noted: WNK463 10 μM, 2 hours, 25 mM HCO3− and 5% CO2.
From the text: as §1
pHASL measurement. pHASL was measured using a fluorescent ratiometric pH indicator, SNARF-1, conjugated to 70 kD dextran (Thermo Fisher Scientific). SNARF-1-dextran was delivered as a powder to the apical side and allowed to distribute into ASL for 1 hour. […] SNARF-1 was excited at 514 nm, and emissions at 580 nm and 640 nm were recorded. The ratio of fluorescence intensities (580/640) was obtained to calculate pH values using calibration curves constructed from colorless standard pH solutions. […]

Series [3] relates to primary CF epithelia. In words: ASL viscosity measurement (FRAP). The format is cell-based, human. The settings on record: WNK463 10 μM, 2 hours. How it is done: ASL viscosity measurement. ASL viscosity was measured using the fluorescence recovery after photobleaching (FRAP) method as previously reported (12). Briefly, powdered FITC-dextran (70 kD, Sigma) was delivered to the apical side of airway epithelia, and allowed to equilibrate for 2 hours. Epithelia were moved to a humidified chamber on the Zeiss LSM 880 confocal microscope. The chamber maintained a temperature of 37° C. and an atmosphere of 5% CO2. After baseline imaging, a small region of interest was photobleached. Time series fluorescence recovery images were collected until maximal recovery was reached. For each epithelium, 4-5 curves from different locations were obtained and averaged. The time constant (T) was calculated from the fluorescence recovery curves using regression, and expressed as ASL value normalized to saline (τASL/τsaline).

The test system of series [4] is primary CF epithelia. Kind of series: Liquid absorption assay. The format is cell-based, human. To be noted: WNK463 10 μM, 4 hours. How it is done:
Liquid absorption assay. Liquid absorption was measured using a previously reported method (40). Briefly, airway epithelia were transferred to 500 μl of fresh basolateral solution containing either vehicle or 10 μM WNK463. The apical side was suctioned dry and 30 μl of Krebs buffer solution was introduced. Of note, the apical solution had the same ionic composition, osmolality, and pH as the basolateral solution. After 4 hours, the apical liquid was collected with micropipettes (Drummond Microcaps #1-000-1000) and the height of the liquid column was recorded. Volume of liquid was calculated as the product of height and micropipette cross-sectional area. The difference between the original and 4-hour liquid volumes was used to calculate the rate of absorption (μl·cm^−2·h^−1).

Series [5] deals with primary CF epithelia. Kind of series: Ciliary beat frequency measurement. The format is cell-based, human. The settings on record: WNK463 10 μM, 2 hours. How it is done:
Ciliary beat frequency measurement. Phase contrast videos of ciliary motion were obtained using the Zeiss Axio Observer microscope at 50 frames per second at room temperature. A total of 256 frames (5.1 second videos) were obtained for each field. A minimum of five random fields per culture were selected. Whole field gaussian mean ciliary beat frequencies (CBF) were analyzed using the Sisson-Ammons video analysis software (SAVA; Ammons Engineering, Mt. Morris, MI) (41).

The test system of the next series is S. aureus. In words: S. aureus killing assay (ASL antimicrobial activity, bacteria-coated grids). The series is classed as cell-based. To be noted: primary CF epithelia; WNK463 10 μM, 2 hours. The procedure:
S. aureus killing assay. ASL antimicrobial activity was assessed using bacteria-coated grids. Preparation, imaging, and quantification were performed as previously described (13). Briefly, S. aureus isolate SA-CL37 was grown to log-phase, labeled with biotin, and conjugated to streptavidin-coated gold electron microscopy grids. The grids were placed on the apical side of airway epithelia in direct contact with ASL. After incubating for 15 minutes in humidified, 5% CO2 chambers at 37° C., the grids were retrieved, rinsed with PBS, and immersed in SYTO9 and propidium iodide to determine bacterial viability (Live/Dead Bacterial Viability Assay, Invitrogen). The grids were washed, fixed with 4% paraformaldehyde, and imaged on the Olympus Fluoview FV 3000 confocal microscope. Images were analyzed for numbers of live and dead bacteria using the ImageJ software. For each grid, three separate regions were imaged. Two grids were assessed per epithelium and the results averaged to obtain % S. aureus killing.

For another series, the system named is CFTR. Kind of series: Ussing chamber, response to CFTRinh-172 in non-CF epithelia. The format is cell-based, human. The settings on record: WNK463 10 μM. How it is done: (§3) Electrophysiologic studies. Airway epithelia were mounted in modified Ussing chambers (Physiologic Instruments) and bathed in symmetric Krebs buffer solution. The standard Krebs buffer contained (in mM): 118.9 NaCl, 25 NaHCO3, 2.4 K2HPO4, 0.6 KH2PO4, 1.2 MgCl2, 1.2 CaCl2), and 5 dextrose at 37° C., adjusted to pH 7.4 in the presence of 5% CO2. The HCO3^−-free solution contained (in mM): 135 NaCl, 2.4 K2HPO4, 0.6 KH2PO4, 1.2 MgCl2, 1.2 CaCl2), 5 HEPES, and 5 dextrose at 37° C., adjusted to pH 7.4 in nominally C02^−free environment. The Cl^−-free solution contained (in mM): 118.9 Na gluconate, 25 NaHCO3, 2.4 K2HPO4, 0.6 KH2PO4, 5 Ca gluconate, 1 Mg gluconate, 5 dextrose, at 37° C. and adjusted to pH 7.4 in the presence of 5% C02. Epithelia were voltage clamped, followed by recording of the short-circuit current (ISC) and transepithelial conductance (Gt). Exposure to either vehicle (DMSO) or WNK463 was continued during recording. The following agents were added apically (in μM): 100 amiloride, 20 uridine triphosphate (UTP), 100 4,4′-diisothiocyano-2,2′-stilbenedisulfonic acid (DIDS), 10 forskolin, and 10 CFTRinh-172. In some experiments, 100 μM bumetanide was also added to the serosal chambers.
WNK463 reduces electrogenic Cl^− secretion. CFTR is the main route for anion exit across the apical membrane of airway epithelia. Whether WNK inhibition alters CFTR activity in airway epithelia is not well-established. To test, we exposed non-CF epithelia to WNK463 for 2 hours, and assayed in Ussing chambers containing symmetric Krebs solution (118 mM Cl^− and 25 mM HCO3^−, gassed with 5% CO2). After clamping transepithelial voltage, we recorded ISC and Gt, and elicited responses to selective channel inhibitors or activators (FIGS. 5A and 5B). We added amiloride followed by DIDS to abolish ENaC-mediated Na^+ absorption and Ca^2+-activated Cl^− channel (CaCC)-mediated anion secretion, respectively. Next, we added forskolin to increase cellular cAMP and thereby phosphorylate and activate CFTR channels. We concluded with CFTRinh-172, an inhibitor of CFTR. We assessed the response to CFTRinh-172 and used it to estimate CFTR channel activity. WNK463 reduced ΔISC-CFTR by ˜ 50% (FIG. 5C).

The test system of a further series is CaCC. Kind of series: Ussing chamber, response to apical DIDS in CF epithelia. To be noted: WNK463 10 μM, 2 hours, after amiloride and UTP. The format is cell-based, human. The procedure:
as §3
CF epithelia lack functional CFTR channels, but express CaCC. […] Next, we added DIDS, a non-specific CaCC inhibitor, and recorded the change in ISC and Gt.

Series [6] has as its system NKCC1. Kind of series: Ussing chamber, bumetanide-sensitive ISC in non-CF epithelia. The series is classed as cell-based, human. The settings on record: WNK463 10 μM, 2 hours, amiloride, forskolin, then basolateral bumetanide. The procedure:
as §3
(§4) Reducing basolateral Cl^−-entry increases CF pHASL. […] To estimate the contribution of NKCC1, we added basolateral bumetanide, and measured ΔISC. […]

For series [7], the system named is NKCC1. In words: Ussing chamber, bumetanide-sensitive ISC in CF epithelia. To be noted: WNK463 10 μM, 2 hours, amiloride, UTP, then basolateral bumetanide. The series is classed as cell-based, human. The procedure: as §3, §4
The subject of series [8] is TNFα/IL-17-treated CF epithelia. Kind of series: pHASL measurement in TNFα/IL-17-treated CF epithelia. The settings on record: CF epithelia treated with TNFα 10 ng/ml and IL-17 20 ng/ml for 48 hours, 2 hours. The series is classed as cell-based, human. How it is done:
To assess cytokine-induced responses, epithelia were treated with a combination of 10 ng/ml TNFα (R&D Systems) and 20 ng/ml IL-17 (R&D Systems). Both cytokines were added to the basolateral media for 48 hours prior to assessments. All studies were approved by the University of Iowa Institutional Review Board.
as §2

The conditions of series [9]: rat model of hypertension; cited from earlier work.
The next series deals with airway epithelia. To be noted: previous studies in airway epithelia; cited from earlier work.
Where [10] appears, read: 2 hours, symmetric Krebs solution with Cl− and HCO3−.

On to `CC(C)(C)NC(=O)c1cncn1C1CCN(c2ccc(-c3nnc(C(F)(F)F)o3)cn2)CC1` [WNK463], for which the pHASL result in [1] (CF epithelia, WNK463 10 μM, 2 hours, in the absence of basolateral Cl−) is recorded as “failed to alkalinize”; in series [1] (primary CF epithelia, WNK463 10 μM, 2 hours, 25 mM HCO3− and 5% CO2), “increased”; in series [2], “increased”; in [8] (WNK463 10 μM), “further increased”. In series [1] (primary CF epithelia, continued exposure up to 24 hours versus 2 hours), the “pHASL, time course” value is recorded as “did not further alkalinize”. The pHASL response result in series [1] (primary CF epithelia, nominally HCO3−/CO2-free environment (HEPES), WNK463 10 μM) is given as “disappeared”. Also, the “ASL viscosity (τASL/τsaline)” value in the series with primary CF epithelia [3] was “decreased”. The “rate of apical liquid absorption” value in the series with primary CF epithelia [4] is given as “did not alter”. Besides, the ciliary beat frequency entry with primary CF epithelia [5] is recorded as “increased”. The “ASL-mediated S. aureus killing” value in the series on S. aureus was “increased”. Moreover, the ΔISC-CFTR entry in the series with CFTR (Cl−-free solution) is given as “remained unchanged”; with CFTR (symmetric HCO3−-free solution) it was “reduced”. In the series on CFTR (setting [10]), the “reduction of ΔISC-CFTR” value is on record as ~50%. Also, the ΔGt-CFTR result in the series with CFTR (setting [10]) is listed as “remained unchanged”. Further, in the series on CaCC, the “DIDS-sensitive ΔGt” value is recorded as “slightly increased”. In the series on CaCC, the “DIDS-sensitive ΔISC” value is listed as “decreased”. Moreover, the “bumetanide-sensitive ISC” value with NKCC1 [6] and in the series with NKCC1 [7] was “reduced” throughout. Besides, the adverse effects entry in [9] is “adverse effects”.
In the case of `CCCCNc1cc(C(=O)O)cc(S(N)(=O)=O)c1Oc1ccccc1` [bumetanide], the pHASL entry in series [1] (CF epithelia, 2 hours after exposure to basolateral bumetanide) is “increased”; in series [8] (bumetanide 100 μM), “further alkalinized”. In the series on airway epithelia, the “intracellular [Cl−]” value was “decreases”.
`O=C(Nc1ccc(Oc2ccc(Cl)cc2)c(Cl)c1)c1cc(I)cc(I)c1O` [rafoxanide, Rafoxanide]: the pHASL result in series [1] (primary CF epithelia, rafoxanide applied for 2 hours) is “increased”.

These data come from patent US20240009179A1, “METHODS OF TREATING CYSTIC FIBROSIS USING WITH-NO-LYSINE (WNK) KINASE PATHWAY INHIBITORS” (UNIVERSITY OF IOWA RESEARCH FOUNDATION, priority 2022, published 2024).
